Values quoted from earlier work, collected in patent US8747385B2, “Methods and compositions to treat myocardial conditions” (Abbott Cardiovascular Systems Inc., priority 2003, dated 2014).

Compound	O2 solubility at 37° C.
FC(F)(F)C(F)(F)C(F)(F)C(F)(F)CCC(F)(F)C(F)(F)C(F)(F)C(F)(F)F [F-44E, 1,2-bis(perfluorobutyl)ethane]	50 V %
FC1(F)C(F)(F)C(F)(F)C2(F)C(F)(F)C(F)(F)C(F)(F)C(F)(F)C2(F)C1(F)F (centres unmarked) [FDC, Perfluorodecalin]	45 V %
